{"source": "patent US7687540B2", "about": "“Substituted propane phosphinic acid esters” (Aventis Pharmaceuticals Inc., priority 2005, dated 2010)", "key": {"[1]": {"assay": "Brain levels after oral dosing in mice by LC/MS/MS", "type": "in vivo, Male CD1 mice", "conditions": "brains collected at 2, 4 and 7 hrs post-dose after oral dosing of test compounds", "procedure": "Animals: Male CD1 mice (Charles River) weighing about 25 g—with free access to food and water.\nDose Groups The compounds of this invention were administered to the test animals at a dose, which is molar equivalent to 10 mg/kg of the parent compound, ((R)-3-amino-2-hydroxy-propyl)-cyclohexylmethyl-phosphinic acid. Each of the test compounds was formulated at this dose level to yield a dose volume of 10 mL/kg and administered by oral gavage to a group of three mice per time point in each study group. Formulations: The compounds of this invention were dissolved in vehicle of 0.2% Tween 80 and 0.5% methylcellulose (MC) at a concentration of about 1 mg/mL. Samples: The blood samples (for plasma) were collected at the following time points: 5, 15 30 and 45 min […]; and 1, 2, 3, 4, 5, and 7 hrs post-dose. Brains were collected at 2, 4 and 7 hrs post-dose Blood Handling The blood samples were added to tubes containing 20 μL of a stock 10 mg/ml solution of sodium fluoride. The blood tubes were then stored in a refrigerator at approximately about 4° C. […] Bioanalysis: All plasma and brain samples were then analyzed for concentrations of the test compound as well as the parent compound, ((R)-3-amino-2-hydroxy-propyl)-cyclohexylmethyl-phosphinic acid by LC/MS/MS. […]\nWhereas, in most cases, the levels of the test compound was too small to be detected for all of the test compounds analyzed."}, "Male Wistar rats": {"tested_on": "Male Wistar rats", "assay": "Chronic Mild Stress Model (CMS), sucrose consumption", "type": "in vivo", "conditions": "3 and 30 mg/kg orally, daily for five weeks; imipramine 10 mg/kg ip", "text": "CMS uses mild stressors, such as food and water deprivation, cage tilts, changes of cage mates, etc. Over a period of weeks of exposure to the mild stressors, the animals gradually reduce their consumption of a highly preferred sucrose solution which persists (in untreated animals) for several weeks following the cessation of stress. This decreased sensitivity to reward (the sucrose solution) reflects anhedonia, a symptom of a major depressive episode (see for example, Behavioral Pharmacol. 5: Suppl. 1, p. 86 (1994) where lithium, carbamazepine and ketoconazole were evaluated in CMS; Psychopharmacology 93:358-364 (1987) where a tricyclic antidepressant was evaluated in CMS; Behavioral Pharmacology: 5:344-350 (1994) where a catechol-O-methyl transferase inhibitor was evaluated in CMS). […]\nThe animals are first trained to consume a 1% sucrose solution; training consists of eight 1 hour baseline tests in which sucrose is presented, in the home cage, following 14 hours food and water deprivation; intake is measured by weighing pre-weighed bottles containing the sucrose solution at the end of the test. Subsequently, sucrose consumption is monitored, under similar conditions, at weekly intervals throughout the whole experiment. […]\nResults are analyzed by multiple analysis of variance, followed by Fisher's LSD test for post hoc comparisons of means."}}, "data": [{"smiles": "NC[C@@H](O)CP(=O)(O)CC1CCCCC1", "note": "[parent compound, ((R)-3-amino-2-hydroxy-propyl)-cyclohexylmethyl-phosphinic acid]", "values": [{"measurement": "concentration of the parent compound in brain", "setting": "[1]", "value": "proportional to the concentration of the parent compound in plasma"}, {"measurement": "activity in CMS (sucrose intake) compared with imipramine", "setting": "Male Wistar rats", "value": "equal to that of imipramine"}]}]}
